The record followed here is US12024498B2, “Radical compounds and methods of using thereof” (OHIO STATE INNOVATION FOUNDATION, priority 2017, dated 2024).

The experiment concerns the target 13C,15N-wt-huPrP23-144 fibrils (Homo sapiens, UniProt P04156).
Where [1] appears, read: 12 mM biradical in 6:3:1 d8-glycerol/D2O/H2O, 12 kHz MAS.

Where two headings read alike, the source gives them in different places.

13C,15N-wt-huPrP23-144 fibrils, sequence (P04156 23-144 limits assumed): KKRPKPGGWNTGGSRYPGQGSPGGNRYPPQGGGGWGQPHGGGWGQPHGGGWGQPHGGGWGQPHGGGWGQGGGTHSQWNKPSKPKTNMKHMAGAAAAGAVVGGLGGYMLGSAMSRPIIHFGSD

TOAC-TOAC-Ser [TTS] yielded an Optimal recycle delay (12 mM biradical in 6:3:1 d8-glycerol/D2O/H2O) of 1.52 s. Under setting [1], the “1H T1” value is listed as 1.29 s, the εDNP is listed as 18-25 and the τDNP came to 1.21 s. For the setting “12 mM biradical, huPrP23-144 fibril samples”, the τDNP amounted to 2 s.
